Measured values as given in paper PMC4890002, “The CebE/MsiK Transporter is a Doorway to the Cello-oligosaccharide-mediated Induction of Streptomyces scabies Pathogenicity” (Scientific Reports, 2016).
Read-outs that look alike come from different tables or passages of the source.

T1: CebE (SCAB57751, CebE^scab) (Streptomyces scabiei, UniProt C9Z451)
T1 construct: gene SCAB_57751; N-terminally 6His-tagged CebE without its first 44 codons (signal peptide and membrane-anchoring lipopeptide), produced in E. coli
T1 sequence (C9Z451 45-454): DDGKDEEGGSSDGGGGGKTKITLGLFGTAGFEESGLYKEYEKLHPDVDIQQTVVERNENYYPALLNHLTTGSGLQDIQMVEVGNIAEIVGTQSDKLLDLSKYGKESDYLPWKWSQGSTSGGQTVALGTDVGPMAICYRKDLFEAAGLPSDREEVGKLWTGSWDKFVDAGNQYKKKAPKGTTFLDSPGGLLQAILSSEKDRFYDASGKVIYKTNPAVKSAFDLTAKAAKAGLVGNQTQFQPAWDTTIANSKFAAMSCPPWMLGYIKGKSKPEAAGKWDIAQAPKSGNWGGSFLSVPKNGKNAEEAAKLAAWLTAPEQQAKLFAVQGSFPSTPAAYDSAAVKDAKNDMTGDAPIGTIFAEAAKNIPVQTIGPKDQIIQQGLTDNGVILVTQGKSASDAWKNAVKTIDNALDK


Assays:
CebR (SCAB57761) = biological target: T2, CebR (SCAB57761) (Streptomyces scabiei, UniProt C9Z452); test: EMSA: loss of DNA binding of pure CebR-His6 preincubated with the sugar; type: biochemical
T2 construct: gene SCAB_57761; CebR-His6 (pure)

[1] = biological target: T1, CebE (SCAB57751, CebE^scab); test: intrinsic tryptophan fluorescence titration of purified protein; type: binding
CebR = CebR (UniProt C9Z452 1-352); test: EMSA; CebR 0-480 nM; no oligosaccharide; EMSA as in earlier work (buffer, salt, pH not given); 15 pmol Cy5 probe and 150 pmol CebR-6His in Methods, legend gives 6 nM probe (panel D) and CebR 0-480 nM (panel C); 1% agarose gel run at room temperature; conditions: protein: recombinant; tags: His6 (printed as CebR-6His / CebR-His6); chain copies: 2; blunt

Molecule | EMSA: loss of DNA binding of pure CebR-His6 preincubated with the sugar (CebR (SCAB57761)) | Kd [1] | Kd ([1]; read-out: Kd) | binding result (CebR)
OC[C@H]1O[C@@H](O[C@H]2[C@H](O)[C@@H](O)C(O)O[C@@H]2CO)[C@H](O)[C@@H](O)[C@@H]1O (some centres unmarked) [(Glc)2, cellobiose] | EMSAs demonstrating that cellobiose and cellotriose are able to inhibit the DNA-binding ability of CebR | 14 nM |  | 
OC[C@H]1O[C@@H](O[C@H]2[C@H](O)[C@@H](O)[C@H](O[C@H]3[C@H](O)[C@@H](O)C(O)O[C@@H]3CO)O[C@@H]2CO)[C@H](O)[C@@H](O)[C@@H]1O (some centres unmarked) [(Glc)3, cellotriose] | EMSAs demonstrating that cellobiose and cellotriose are able to inhibit the DNA-binding ability of CebR |  | 2 nM | 
cbsbglC probe (dsDNA) DNA 1: CGACCACCAATGGGAGCGCTTCCATGCCTGAACC DNA 2: GGTTCAGGCATGGAAGCGCTCCCATTGGTGGTCG |  |  |  | binds
